Source: publication PMC11984905, “Chiral Switch of Gadopiclenol: New Standards in MRI Probes” (Advanced Science, 2025)
Read-outs that look alike come from different tables or passages of the source. Marks after values point to notes of the source that are not given here. One block for each compound: values may come before it.

Tests used:
[1] = set-up: method as in earlier work; conditions: stability constant of the Na+ complex; cited from earlier work
[2] = 25 °C, cited from earlier work
[3] = cited from earlier work
[4] = cited from earlier work; remark: listed apart in the source
[5] = cited from earlier work; remark: listed apart in the source
[6] = cited from earlier work; for pGd: [Gd^3+]tot = 1 µM, [L]tot = 10 µM; for pGd / logK^c GdL: pH 7.4, calculated from literature constants; for *logKGd(H2L): diprotonated out-of-cage intermediate
[7] = cited from earlier work; remark: listed apart in the source
[8] = Biodistribution and in vivo dynamic T1-weighted MRI; set-up: species or system A/J healthy mice; conditions: 0.1 mmol Gd/kg i.v.
Procedure: Dynamic T 1‐weighted MRI on twelve A/J healthy mice was used to compare the biodistribution of ([Gd(ent‐L2)] and [Gd(BT‐DO3A)] (Gadovist), n = 6 animals each), administered at 0.1 mmol Gd/kg. The MRI monitored the distribution within abdominal tissues for up to 1 h post‐administration MRI images and the pharmacokinetic curves are shown in Figure 6 .
All the procedures and the experiments were conducted according to the national and international laws on experimental animal research (L.D. 26/2014; Directive 2010/63/EU) and under a specific Italian Ministerial Authorization (project research number 46/2015‐PR). Twelve A/J healthy mice (females, 6–7 weeks old, supplied by Envigo RMS S.r.l.) were housed in a controlled environment (22°C, 55% humidity, 15–20 air changes/hour, 12‐h light/dark cycle) with ad libitum access to VRF1 (P) certified pellets and filtered water. To minimize discomfort, the animals were socially housed with enrichment items. Veterinary care was available throughout the study to alleviate any potential pain or distress following procedures. […] The animals were randomly assigned to two experimental groups (n = 6 each, with sample size confirmed via GPower) and underwent to Magnetic Resonance Imaging (MRI) experiments performed using a BioSpec 47/30 preclinical scanner (Bruker Biospin, Ettlingen, Germany) operating at […] (i.e., at a proton Larmor frequency of 125 MHz) and equipped with two‐channel 35 mm RF volume coil. During MRI experiments, all the animals were anaesthetized with isoflurane gas (≈1%) in O2. Anaesthesia was maintained by adjustment of gas level as a function of breath rate. Before injection of each test article, T 1‐weighted spin echo sequences were acquired on the animal in order to check the position of the animal. A series of T 1‐weighted 3D gradient echoscans (repetition time = 50 ms, flip angle = 50°, echo time = 2.8 ms, number of averages = 2, matrix size (3D) = 192 × 192 × 8, field of view = 2.5 × 2.5 × 1.2 cm, acquisition time = 154 s) were then acquired before and after the intravenous administration of a 50 mM saline solution (0.9%) of [Gd(ent‐L2)] (n = 6 mice) and [Gd(BT‐DO3A)] (Gadovist, Bayer Schering, Germany) (n = 6 mice) at an injection rate of ≈2 mL/min through a catheter placed in the tail vein of the animal. Both [Gd(ent‐L2)] and [Gd(BT‐DO3A)] were administered at a dose of 0.1 mmol Gd/kg corresponding to an administration volume of 2 mL kg^−1. The kinetics of the Gd(III)‐complexes was followed up to 60 min post‐injection. After imaging was performed, the mouse was removed from the scanner and returned to the Animal Facility room. At the end of the study all animals were sacrificed by overdose of anaesthesia and cervical dislocation. Unblinded image analysis was performed by positioning the region of interest (ROIs) over liver, kidney, muscle, and blood vessel. ROIs positioning and signal quantification was performed by using a home‐developed plugin, running on Image J.^[ [51] ^]
Signal enhancement (Enh) was calculated using the formula: Enh = 100×(SignalpostCA ‐SignalpreCA)/SignalpreCA, where SignalpreCA and SignalpostCA denote the MR signal before and after administration of contrast agents, respectively. Data were presented as mean ± standard deviation (SD). The sample size (n = 6 per group) was determined a priori using GPower software to ensure adequate statistical power. The Levene's test was employed to assess the homogeneity of variances among groups. For comparisons where homogeneity of variance was confirmed, a one‐way ANalysis Of VAriance (ANOVA) was applied to test the null hypothesis that treatment groups originate from the same distribution. Post‐hoc pairwise multiple comparisons were performed using Tukey's method when significant differences were detected. Statistical analyses and data visualization were conducted using Mathematica (Wolfram, USA), while summary statistics (mean, SD, and standard error) were calculated using Microsoft Excel (USA). […]

[9] = cited from earlier work; for ^298K r 1 [1.5 T] / r 1 ^310K [1.5 T]: water; for τ R: Table 2

Compound: O=C(O)CN1CCN(CC(=O)O)CCN(CC(=O)O)CCN(CC(=O)O)CC1 [DOTA]
- logKNa(L) [1]: 4.38
- logK1^H ([2]; 0.1 M KCl): 11.14
- logK2^H ([2]; 0.1 M KCl): 9.69
- logK3^H ([2]; 0.1 M KCl): 4.85
- logK4^H ([2]; 0.1 M KCl): 3.95
- ΣlogKi^H ([2]; 0.1 M KCl): 29.63
- logK1^H ([2]; 0.1 M Me4NCl): 11.45
- logK2^H ([2]; 0.1 M Me4NCl): 9.64
- logK3^H ([2]; 0.1 M Me4NCl): 4.60
- logK4^H ([2]; 0.1 M Me4NCl): 4.11
- logK5^H ([2]; 0.1 M Me4NCl): 2.29
- ΣlogKi^H ([2]; 0.1 M Me4NCl): 32.09
- logK1^H ([2]; 0.15 M NaCl): 9.14
- logK2^H ([2]; 0.15 M NaCl): 9.21
- logK3^H ([2]; 0.15 M NaCl): 4.48
- logK4^H ([2]; 0.15 M NaCl): 4.03
- logK5^H ([2]; 0.15 M NaCl): 1.99^d)
- ΣlogKi^H ([2]; 0.15 M NaCl): 28.85
- k d at pH = 7.4 ([3]; pH 7.4, 0.15 M NaCl, 25 °C): 7.3 × 10^−14 s^−1
- logK CaL ([4]; 0.1 M KCl): 16.37
- logKCaHL ([4]; 0.1 M KCl): 3.60
- logK CuL ([5]; 0.1 M KCl): 22.72
- logKCuH2L ([5]; 0.1 M KCl): 3.92
- logKCuHL ([5]; 0.1 M KCl): 4.45
- logKGdHL ([6]; 0.1 M KCl): 1.15
- logK GdL ([6]; 0.1 M Me4NCl, 25 °C): 25.6
- logK GdL ([6]; 0.1 M NaCl, 25 °C): 24.7
- pGd ([6]; 0.1 M Me4NCl, 25 °C): 20.24
- pGd ([6]; 0.1 M NaCl, 25 °C): 22.09
- *logKGd(H2L) ([6]; 0.15 M NaCl, 25 °C): 6.07^f)
- logK^c GdL ([6]; 0.1 M Me4NCl, 25 °C): 19.29
- logK^c GdL ([6]; 0.1 M NaCl, 25 °C): 21.14
- logK ZnL ([7]; 0.1 M KCl): 18.7
- logKZnH2L ([7]; 0.1 M KCl): 3.96
- logKZnHL ([7]; 0.1 M KCl): 5.33

Compound: CC(O)CN1CCN(CC(=O)O)CCN(CC(=O)O)CCN(CC(=O)O)CC1 (stereo not shown) [HP‐DO3A]
- logK1^H ([2]; 0.1 M Me4NCl): 11.96
- logK2^H ([2]; 0.1 M Me4NCl): 9.43
- logK3^H ([2]; 0.1 M Me4NCl): 4.30
- logK4^H ([2]; 0.1 M Me4NCl): 3.26
- ΣlogKi^H ([2]; 0.1 M Me4NCl): 28.95
- k d at pH = 7.4 ([3]; pH 7.4, 0.1 M NaCl, 25 °C): 1.0 × 10^−11 s^−1
- k d at pH = 7.4 ([3]; pH 7.4, 0.15 M NaCl, 25 °C): 1.2 × 10^−11 s^−1
- logK CaL ([4]; 0.1 M Me4NCl, 25 °C): 14.83
- logK CuL ([5]; 0.1 M Me4NCl, 25 °C): 22.84
- logKCuH2L ([5]; 0.1 M Me4NCl): 2.3
- logKCuHL ([5]; 0.1 M Me4NCl): 3.72
- logK GdL ([6]; 0.1 M Me4NCl, 25 °C): 23.8
- logKGdHL ([6]; 0.1 M Me4NCl): 1.10
- logKGdLH-1 ([6]; 0.15 M NaCl, 25 °C): 11.36^f)
- pGd ([6]; 0.1 M Me4NCl): 18.16
- *logKGd(H2L) ([6]; 0.15 M NaCl, 25 °C): 5.10^f)
- logK^c GdL ([6]; 0.1 M Me4NCl): 17.21
- logK ZnL ([7]; 0.1 M Me4NCl, 25 °C): 19.37
- logKZnHL ([7]; 0.1 M Me4NCl): 3.7

Compound: O=C(O)CN1CCN(CC(=O)O)Cc2cccc(n2)CN(CC(=O)O)CC1 [PCTA, 3,6,9,15‐tetraazabicyclo[9.3.1]pentadeca‐1(15),11,13‐triene‐3,6,9 triacetic acid]
- logK1^H ([2]; 0.15 M NaCl): 9.97
- logK2^H ([2]; 0.15 M NaCl): 6.73
- logK3^H ([2]; 0.15 M NaCl): 3.22
- logK4^H ([2]; 0.15 M NaCl): 1.40
- ΣlogKi^H ([2]; 0.15 M NaCl): 21.32
- logK1^H ([2]; 1.0 M KCl): 11.36
- logK2^H ([2]; 1.0 M KCl): 7.35
- logK3^H ([2]; 1.0 M KCl): 3.83
- logK4^H ([2]; 1.0 M KCl): 2.12
- ΣlogKi^H ([2]; 1.0 M KCl): 25.95
- logK CaL ([4]; 1.0 M KCl): 12.72
- logKCaHL ([4]; 1.0 M KCl): 3.79
- logK CuL ([5]; 1.0 M KCl): 18.79
- logKCuHL ([5]; 1.0 M KCl): 3.58
- logK GdL ([6]; 1.0 M KCl): 20.39
- logKGdLH-1 ([6]; 1.0 M KCl): 11.10
- pGd ([6]; 1.0 M KCl): 17.11
- *logKGd(H2L) ([6]; 1.0 M KCl): 3.12
- logK^c GdL ([6]; 1.0 M KCl): 16.15
- logK ZnL ([7]; 1.0 M KCl): 20.48
- logKZnHL ([7]; 1.0 M KCl): 3.10

- wash-in and wash-out kinetics ([8]; up to 1 h post-administration): rapid wash‐in and wash‐out
- decrease in signal enhancement in the blood compartment ([8]; within 30 min, 3 T): ≥ 50%
Compound: O=C([O-])CN1CCN(CC(=O)[O-])CCN(C(CO)C(O)CO)CCN(CC(=O)[O-])CC1.[Gd+3] (stereo not shown) [[Gd(BT‐DO3A)], reference compound]
- k1 ([3]; 25 °C): 3.4e-05 M⁻¹ s⁻¹
- k d at pH = 7.4 ([3]; pH 7.4, 0.1 M NaCl, 25 °C): 1.35×10^-12 s^−1
- average maximum signal enhancement in the liver ([8]; 3 T, n = 6): ≈ 110%

Compound: O=C([O-])CN1CCN(CC(=O)[O-])CCN(CC(=O)[O-])CCN(CC(=O)[O-])CC1.[Gd+3] [[Gd(DOTA)]^−]
- k1 ([3]; 0.15 M NaCl, 25 °C): 1.8e-06 M⁻¹ s⁻¹
- K^HGd(HL) ([3]; 3.0 M NaClO4, 25 °C): 14^d) M^-1
- k1 ([3]; 25 °C): 8.4e-06 M⁻¹ s⁻¹
- k d at pH = 7.4 ([3]; pH 7.4, 0.15 M NaCl, 25 °C): 7.3×10^-14 s^−1
- k d at pH = 7.4 ([3]; pH 7.4, 25 °C): 3.3×10^-14 s^−1
- k0 ([3]; spontaneous dissociation, 0.15 M NaCl, 25 °C): 6.7×10^-11 b) s^-1
- ^298K r 1 [1.5 T] [9]: 4.2 mM⁻¹ s⁻¹
- r 1 ^310K [1.5 T] [9]: 3.3 mM⁻¹ s⁻¹
- τ R [9]: 90 ps
- q [9]: 1
- τ M1 [9]: 208 ns

Compound: O=C([O-])CN1CCN(CC(=O)[O-])Cc2cccc(n2)CN(CC(=O)[O-])CC1.[Gd+3] [[Gd(PCTA)]]
- ^298K r 1 [1.5 T] [9]: 6.4 mM⁻¹ s⁻¹
- r 1 ^310K [1.5 T] [9]: 4.9 mM⁻¹ s⁻¹
- τ R [9]: 63 ps
- q [9]: 2
- τ M1 [9]: 151 ns
- τ M2 [9]: 36 ns
